The record followed here is US11286414B2, “Sodium nitroprusside and nitrate metabolic inhibition of sulfate-reducing microbes to control sulfide production” (UTI Limited Partnership, priority 2017, dated 2022).

One assay has as its system 4PW SRB consortia. The assay can be described thus: Comparison of SNP with other biocides on souring. The class given is cell-based, SRB consortia enriched from 4PW. The following applies: 10 ppm added at start of growth, one month.
The test system of another assay is SRB consortia. Put plainly: Souring control in sand-packed bioreactors containing heavy oil. The class given is cell-based, SRB consortia from MHGC produced water (18PW).

As to `O=CCCCC=O` [Glut, glutaraldehyde], the “metabolic activity and growth of SRB (sulfide, sulfate, lactate concentrations)” value in the assay on 4PW SRB consortia is “not effective at this low dosage”. Take `O=[N+]([O-])[O-].[Na+]` [nitrate, sodium nitrate]: in the assay with SRB consortia (injection of 2 PV CSBK-S with 85 ppm (1 mM) or 170 ppm (2 mM) nitrate), the “effect on sulfide concentration in the effluent” value is “did not affect the sulfide concentration in the effluent”. For the same molecule, in the assay with SRB consortia (injection of 2 PV of 340 ppm (4 mM) nitrate), the sulfate reduction result is “inhibition of sulfate reduction was observed”. Further, the “concentration that inhibited sulfate reduction / controlled souring when used singly” value with SRB consortia (oil as electron donor) stood at 340 ppm. Take benzalkonium chloride [BAC]: the “metabolic activity and growth of SRB (sulfide, sulfate, lactate concentrations)” value with 4PW SRB consortia is on record as “not effective at this low dosage”. Same read-out and setting: then cocodiamine, with “not effective at this low dosage”; and “tetrakishydroxymethyl phosphonium sulfate [THPS]”, with “not effective at this low dosage”.
